Experimental data: patent US20220152024A1, “COMBINATIONS USEFUL IN A METHOD FOR TREATING SARCOMA” (PTC THERAPEUTICS, INC., priority 2019, published 2022)
Entries after “also recorded” stand apart in the source; their conditions may differ. Where two headings read alike, the source gives them in different places. Marks after values point to notes of the source that are not given here.

Tests used:
[1] = system: SK-UT-1 leiomyosarcoma tumor cells; format: in vivo
Procedure: (§1) A negative coefficient indicates greater inhibition in the combination group than expected based on the activity of the monotherapies. The more negative the coefficient, the greater the activity of the combination.
This study utilized SK-UT-1 leiomyosarcoma tumor cells implanted into the flank of athymic nude mice.
To compare tumor growth, the area under the curve comparing tumor volume vs day for each individual mouse was calculated and then averaged for each group.
(§2) Interaction coefficients were determined using the AUCs of the Day 0 to Day 25 tumor volume vs day curves. To take into account the data after Day 25, interaction coefficients were also calculated for the median time to reach 1000 mm3. A negative interaction coefficient indicates synergy.

SK-LMS-1 model = test: Previous study in the SK-LMS-1 model (doxorubicin, gemcitabine combinations); format: in vivo; conditions: Cpd 1 12.5 mg/kg biw with varying doses/regimens of doxorubicin and gemcitabine
From the text: (§3) Leiomyosarcoma accounts for 5-10% of soft tissue sarcomas. Typically, leiomyosarcomas have a complex karyotype and are associated with p53 mutations (Yang J, Du X, Chen K, Ylipaa A, Lazar A J, Trent J, Lev D, Pollock R, Hao X, Hunt K, Zhang W. Genetic aberrations in soft tissue leiomyosarcoma. Cancer Lett. 2009 Mar. 8; 275(1):1-8). The cell line, SK-LMS-1 has a complex karyotype and a mutated p53 gene. Chemotherapy with doxorubicin-based drug regimens such as a combination of doxorubicin and ifosfamide is the standard of care. However, these regimens usually result in cardiotoxicity, rapid development of resistance, and no significant survival advantage. In a previous study utilizing the SK-LMS-1 model, Compound 1 (Cpd 1) was tested at a constant dose (12.5 mg/kg biw) in combination with varying doses/regimens of doxorubicin and gemcitabine. […] Here, SK-LMS-1 cells were passaged for a more extended time in vivo relative to the prior study generating a more aggressive tumor model. This study tested the efficacy of Cpd 1 alone and in combination with the chemotherapeutic agents Doxil and DTIC in the treatment of mice bearing SK-LMS-1 human leiomyosarcoma tumors.

[2] = Predicted effective human dose from mouse exposure and measured human exposure (FIGS. 6A-D); format: in vivo; conditions: monotherapy, orally twice per week
From the text: FIGS. 6A-D summarize the pharmacokinetics of Compound 1 administered as a monotherapy in humans (as measured by AUCLast and Cmax) two times per week in the AST trial, wherein the dotted line in each figure indicates free drug concentration.
(§4) In contrast to use of allometric conversion factors, FIGS. 6A-D summarize the pharmacokinetics of Compound 1 administration in humans, showing that a conversion factor for Compound 1 based on free drug in humans compared to free drug in mice can be derived to estimate the effective target AUC and Cmax, thus accounting for the differences in free drug between these species.
(§5) As shown by the dashed line, this predicts that the estimated dose in a human patient of about 2.0 mg/kg (biw) or higher of Compound 1 would be effective.
As shown by the dashed line, this predicts that the estimated dose in a human patient of about 1.4 mg/kg (biw) or higher of Compound 1 would be effective.
As shown by the dashed line, this predicts that the estimated dose in a human patient of about 2.3 mg/kg (biw) or higher of Compound 1 would be effective.
As shown by the dashed line, this predicts that the estimated dose in a human patient of about 1.8 mg/kg (biw) or higher of Compound 1 would be effective.

[3] = Exposure (AUC, Cmax) of Compound 1 in the mouse, free and total drug; conditions: in vivo, po
Procedure: as §4, §5

[4] = system: SK-LMS-1 human leiomyosarcoma tumors; format: in vivo
From the text: as §3, §1
as §2, with “Tumors were ˜222 mm3 in volume when dosing was initiated. […] Interaction” for “Interaction”, “28” for “25”, “28,” for “25,”, “were” for “were also”, “mm^3.” for “mm3.”
as §1

Rat model MTD = conditions: in vivo
[5] = system: advanced solid tumor (AST) cancers; test: Phase 1a clinical trial NCT02404480, safety, PK and response; format: in vivo, human; conditions: 31 evaluable patients; Compound 1 alone
Procedure: (§6) FIG. 5 summarizes the duration of Compound 1 treatment alone in an […] (AST) Phase 1a clinical trial (NCT02404480) of 31 evaluable patients to determine safety and pharmacokinetics. The initial human dose of 0.65 mg/kg was based on a rat model MTD of 40 mg/kg, with subsequent higher human dose ranging at 1.3 mg/kg, 2.6 mg/kg, 5.2 mg/kg, 7 mg/kg, and 10 mg/kg. The Standard 3+3 trial design, with 3 patients per cohort, allowed dose escalation for each cohort absent a dose-limiting toxicity (DLT), enabling the next cohort to be treated at the next higher dose. In the event any one patient in the cohort experienced a DLT at a particular dose, the next cohort would be treated at the same dose. A full pharmacokinetic review of each patient was taken on Day 1 and Day 29, with a partial review taken on Day 15.
(§7) NCT02404480: Phase 1 Study, open-label, first-in-human, evaluated safety and pharmacokinetic (PK) profile for use of Compound 1 in patients with advanced solid tumor (AST) cancers, determined the RP2D (recommended phase II clinical trial dose) according to escalating dose levels.
(§8) Compound 1 was administered as a […] in NCT02404480, a Phase 1a clinical trial designed to evaluate safety and PK profile for use of Compound 1 in patients with advanced solid tumor (AST) cancers.

[6] = as above; format: in vivo, human; conditions: human, in vivo, 2.6 mg/kg, NCT02404480 PK profile, FIG. 6
Procedure: as §6, §7, §8

[7] = docetaxel 15 mg/kg IP QW6, alone or with Cpd 1 12.5 mg/kg
[8] = docetaxel 15 mg/kg IP qw6, alone or with Cpd 1 12.5 mg/kg biw6
[9] = DTIC 4 mg/kg IP tiw, alone or with Cpd 1 12.5 mg/kg PO biw
[10] = DTIC 21 mg/kg IP qd5, alone or with Cpd 1 12.5 mg/kg PO biw

CC(=O)O[C@@]12CO[C@@H]1C[C@H](O)[C@@]1(C)C(=O)[C@H](O)C3=C(C)[C@@H](OC(=O)[C@H](O)[C@@H](NC(=O)OC(C)(C)C)c4ccccc4)C[C@@](O)([C@@H](OC(=O)c4ccccc4)[C@H]21)C3(C)C [docetaxel]
effect on tumor growth ([1]; docetaxel 5 mg/kg IP BIW5.5, alone or with Cpd 1): no efficacy as a monotherapy | percent reduction in tumor volume at Day 28 (%) ([1]; docetaxel 5 mg/kg IP biw5.5 (11 doses), alone or with Cpd 1 12.5 mg/kg biw6): 2.27% | median time for tumor volume for individual mice to reach 1000 mm^3 ([1]; docetaxel 5 mg/kg IP biw5.5, alone or with Cpd 1 12.5 mg/kg biw6): 18.9 days | effect on tumor growth ([1]; docetaxel 15 mg/kg IP QW6, alone or with Cpd 1): tumor growth was delayed; also recorded: more effective than Cpd 1 | inhibition vs vehicle at Day 25 [1, 7]: 78% | mean tumor size at Day 25 [1, 7]: 1486 mm^3 | median time for tumor volume for individual mice to reach 1000 mm^3 (Days) [1, 8]: 50.1* Days | percent reduction in tumor volume at Day 28 (%) [1, 8]: 77.8* %

COc1cccc2c1C(=O)c1c(O)c3c(c(O)c1C2=O)C[C@@](O)(C(=O)CO)C[C@@H]3O[C@H]1C[C@H](N)[C@H](O)[C@H](C)O1 [Doxorubicin, doxorubicin]
efficacy (SK-LMS-1 model): not active as a monotherapy or in combination with Cpd 1

Cc1nc2ccc(F)cc2n1-c1nc(N)c(F)c(Nc2ccc(C(F)(F)F)cc2)n1 [Compound 1, 5-fluoro-2-(6-fluoro-2-methyl-1H-benzo[d]imidazol-1-yl)-N^4-[4-(trifluoromethyl)phenyl]pyrimidine-4,6-diamine]
minimum effective amount for a 70 kg human subject, for Cmax ([2]; targeting free drug at 12.5 mg/kg in the mouse): about 124 mg | minimum effective amount for a 70 kg human subject, for Cmax ([2]; targeting total drug at 12.5 mg/kg in the mouse): about 226 mg | AUC ([3]; Dose in Mouse 10 mg/kg): 21000 ng·h/mL | Cmax ([3]; Dose in Mouse 10 mg/kg): 1100 ng/mL | AUC ([3]; Dose in Mouse 12.5 mg/kg): 26200 ng·h/mL | Cmax ([3]; Dose in Mouse 12.5 mg/kg): 1380 ng/mL | inhibition vs vehicle at Day 25 ([1]; Cpd 1 12.5 mg/kg BIW6 alone): 35% | delay of the median time for tumor growth to reach 1000 mm^3 ([1]; Cpd 1 12.5 mg/kg BIW6 alone, vs vehicle): ~1.7 fold | median time for tumor volume for individual mice to reach 1000 mm^3 ([1]; Cpd 1 12.5 mg/kg PO biw6 alone): 31.2 days | percent reduction in tumor volume at Day 28 (%) ([1]; Cpd 1 12.5 mg/kg PO biw6 alone): 35.4* % | mean tumor volume on Day 42 ([1]; Cpd 1 12.5 mg/kg alone, all mice euthanized): 1508 mm^3 | mean tumor volume on Day 25 ([1]; Cpd 1 12.5 mg/kg alone, ~163 mm^3 at start of dosing): 983 mm^3 | median time for tumor volume for individual mice to reach 1000 mm^3 ([4]; Cpd 1 12.5 mg/kg PO biw alone): 23 days | percent reduction in tumor volume at Day 28 (%) ([4]; Cpd 1 12.5 mg/kg PO biw alone): 21% | mean tumor volume on Day 32 ([4]; Cpd 1 12.5 mg/kg biw alone, all mice euthanized): 1607 mm^3 | mean tumor volume on Day 28 ([4]; Cpd 1 12.5 mg/kg biw alone, ~222 mm3 at start of dosing): 1388 mm3 | MTD (Rat model MTD): 40 mg/kg | patients with a mixed/partial response [5]: 2/31 | patients with stable disease [5]: 5/31 | AUC(0-t) ([6]; read-out: target AUCLast): 13100 ng·h/mL | Cmax ([6]; read-out: target Cmax): 679 ng/mL

CN(C)/N=N/c1[nH]cnc1C(N)=O [DTIC, dacarbazine, reference compound]
median time for tumor volume for individual mice to reach 1000 mm^3 [4, 9]: 19 days | percent reduction in tumor volume at Day 28 (%) [4, 9]: 0% | effect on tumor growth ([4]; DTIC 4 mg/kg IP tiw, alone or with Cpd 1 12.5 mg/kg biw): no activity | median time for tumor volume for individual mice to reach 1000 mm^3 [4, 10]: 35 days | percent reduction in tumor volume at Day 28 (%) [4, 10]: 74* %
